According to patent publication US20150079029A1, “METHODS AND COMPOSITIONS FOR INHIBITING ANGIOGENESIS” (Oncology Research International Limited, priority 2006, published 2015):

Key:
aortic explants = assay: Vessel growth (sprouts and branches) from mouse aortic explants in collagen gel; type: cell-based, C57BL6/J mice; details: for Branches Mean / Sprouts Mean: 1 μL/mL DMSO, 6 days culture, 8 replicates
Description: Three male C57BL6/J mice (9 weeks old) were sacrificed by CO2 asphyxiation and the blood harvested by heart puncture using a 29 gauge needle. The aorta was then dissected (from the aortic arch to the pleural/peritoneal interface) and placed in ice-cold DMEM supplemented with 10 mM Hepes and penicillin/streptomycin.
The fibrous and adipose tissues surrounding the aorta were removed by microscopic dissection and the aorta flushed of blood using ice cold DMEM. The aorta was then longitudinally bisected and cut into approximately 1 mm squares. Individual pieces of aorta were embedded in a drop (20 μL) of collagen solution in the bottom of a well of a 24 well tissue culture plate. The plates were then placed at 37° C./5% CO2 for 10 minutes to polymerise the collagen into a gel. Media (0.3 mL) alone, containing DMSO or deltonin in DMSO was then added to each well to form a moat around the collagen gel.
Only the central 8 wells of each 24 well plate were used for explant cultures to avoid differential gaseous exchange and evaporation rates between explant sample wells. The outer wells were filled with PBS.
Nine groups of 8 replicates each were tested:
The explants were then cultured at 37° C./5% CO2 in a humid incubator for 6 days. Explants were fixed at room temperature for 20 minutes by adding an equal volume (0.3 mL) of 4% paraformaldehyde in PBS to each well. After washing three times with HEPES-buffered saline (HBS, 150 mM NaCl, 10 mM HEPES) the explants were stained with 10 μg/ml FITC-BS-1 lectin conjugate (BS-1 lectin specifically binds mouse endothelial cells) in HBS overnight at 4° C. The following day the explants were washed three times with HBS. Vessel outgrowths from explants were visualised by fluorescence microscopy and photographs taken for data analysis. Multiple multidepth focus fluorescent images were photographed for each explant and the photographs processed using deconvolution software so that total vessel outgrowth for each explant could be determined Total cellular growth associated with each explant was also visualised by light microscopy using a dissecting microscope and documented by photography. For ease of visualisation and analysis a composite inverted black and white image was prepared from the multiple fluorescent images of the vessel outgrowths for each explant. The number of vessel sprouts and the number of vessel branches for each explant was then counted with the person counting being blinded to the identity of each sample. The results are summarised in Table 4, and shown graphically in FIG. 1.

[1] = tested on: angiogenesis induced by bFGF in angiochambers; assay: AngioChamber assay: bFGF-induced fibrous capsule formation and haemoglobin (Drabkin) blood content; type: in vivo, FvB mice; details: i.p. once daily for 5 days, dioscin 10, deltonin 10, trillin 60, prosapogenin A 20, sorafenib 60 mg/kg; for Average blood content (from haemoglobin content): Drabkin assay; for Average chamber weight: wet weight on Day 6
Text: The AngioChamber™ assay utilises the normal physiological process of wound healing, which promotes the formation of a fibrous capsule around an implanted chamber (Wood et al, (2000) Cancer Research, 60(8):2178-89). The inclusion of bFGF in the chamber induces blood vessel development in the fibrous capsule. The assay therefore assesses the efficacy of treatments by gauging their effect both on the fibrous capsule formation, measured by the wet weight of the capsule at the termination of the study and by determination of blood vessel supply to the chamber by assaying for haemoglobin content. The haemoglobin content of the fibrous capsule is a measure of neovascularisation, which is assayed by the Drabkin Assay.
The angiochambers were porous tissue chambers made of perfluoro-alkoxy-Teflon and filled with 0.8% agar containing 20 IU/mL heparin, with or without 1 μg/mL human bFGF. Both ends of the chamber were sealed with removable caps of the same material. The chambers were filled under sterile conditions with 0.8% agar containing 20 IU/mL heparin, with or without 1 μg/mL human bFGF. The agarose solution was maintained at 37° C. prior to filling the chambers.
70 female FvB mice were microchipped, weighed and randomised based on body weight into 7 groups with 10 mice per group. For implantation, the mice were anaesthetised by halothane inhalation. Approximately 150 μL sterile filtered air was injected subcutaneously in the back of each mouse, between the shoulder blades, resulting in an air pocket in which a small incision was made and the chamber inserted. The wound was closed with two 1.4 mm wound clips.
The treatments, which were all formulated in NMP:PEG300:Water (1:9:10, v/v) and administered daily by intraperitoneal injection, were as given in the Table 7:
Treatment was started when all the animals had recovered fully from anaesthesia, and continued for 5 days. On Day 6, the vascularised fibrous chambers were removed and the wet weight recorded for each implant. The chamber from each mouse was then snap frozen with liquid nitrogen and stored at −20° C. until assessed for haemoglobin content.
The fibrous capsule samples were thawed and kept on ice during the procedure. Sterile water was added to each thawed sample, and the sample homogenised with an UltraTourax at high speed. To avoid cross-contamination, the UltraTourax was flushed for 30 seconds with 5 mL distilled water after homogenising each sample. The homogenate was transferred into 2 mL Eppendorf tubes and stored on ice. The Eppendorf tubes were centrifuged at 4° C. and high speed (14,000 relative centrifugal force (RCF)) for 60 min. 1.0-1.5 mL of the intermediate aqueous solution (homogenate), between the pellet and the fat layer, was then transferred to fresh labelled 1.5 mL Eppendorf tubes and stored on ice. 50 μL of each homogenate was transferred into separate wells of a 96-well plate. 50 μL of water was transferred into 2 wells as blanks. 50 μL of Drabkin's reagent was then added to each well and mixed. After 15 min incubation at room temperature, the absorbance of each sample at 540 nm was measured and the volume of blood for each sample calculated from a standard curve.
The Percent Induction for a treatment is the difference in blood content between the treatment (+bFGF) and the vehicle alone (no bFGF), divided by the difference in blood content between the vehicle with bFGF and the vehicle alone (no bFGF), expressed as a percentage.

[2] = tested on: angiogenesis induced by bFGF in angiosponges; assay: AngioSponge assay: bFGF-induced neovascularisation of implanted gelfoam, CD31 staining; type: in vivo, C3H/Hej mice; details: i.p. once daily for 10 days, dioscin 10, deltonin 10, trillin 60, prosapogenin A 20, sorafenib 60 mg/kg; for Average number of blood vessels (CD31 counts): sponges excised Day 11
Text: The AngioSponge™ assay enables slow release of agarose-captured growth factor, which stimulates endothelial cell proliferation and migration, and provides a tissue-like matrix for neovascularisation. The assay can be therefore be used to gauge the efficacy of treatments designed to inhibit angiogenesis, determined by counting blood vessels after CD31 immunohistochemical staining of endothelial cells (McCarty et al, International Journal of Oncology, 21:5-10, 2002).
Gelfoams (Pharmacia & Upjohn) were cut into approximately 7×7×7 mm pieces, under sterile conditions, and pre-soaked over night with sterile phosphate buffered saline. The hydrated gelfoams were then partially dried. Growth factor (bFGF) was diluted to an initial concentration of 2 μg/mL in warm (37° C.) 0.4% agarose. The partially dried gelfoams were placed in the growth factor solution, or in warm 0.4% agarose without growth factor, and then transferred to a Petri dish containing warm 0.4% agarose (1:1 dilution, final growth factor concentration 1 μg/mL) for polymerisation and solidification.
70 female C3H/Hej mice were microchipped, weighed and randomised based on body weight into 7 groups with 10 mice per group. For implantation, the mice were anaesthetised by halothane inhalation. A small channel forged with a trocar needle between the 3rd and 4th mammary gland, the sponge was inserted to the full depth of the channel and the incision closed with a wound clip.
The compounds were formulated in N-methylpyrrolidone (NMP):PEG300:Water (1:9:10, v/v). Dosing was established on the basis of in vitro IC50 data and preliminary toxicity studies. Compounds were administered daily by intraperitoneal injection, at a dosing volume of 10 mL/kg, once daily for the study period as shown in Table 5.
Treatment was started when all the animals had recovered fully from anaesthesia, and continued for 10 days. On Day 11, the angiosponges were excised and snap frozen in liquid nitrogen with OCT for CD31 staining on frozen sections.
CD31/PECAM-1 is an antigen present specifically on endothelial cells and can therefore be used as a marker for blood vessels. Frozen samples of the sponge were cryo-sectioned (12 μm), mounted on positively-charged Plus slides (Fisher Scientific), and air-dried for 30 minutes. Frozen sections were in turn fixed in cold acetone, acetone/chloroform (1:1, v/v), and acetone for 5 min each, and then washed with PBS (phosphate buffer saline). After blocking with PBS containing 5% normal horse serum and 1% normal goat serum, sections were incubated with PECAM-1 monoclonal rat anti-mouse CD31 antibody (1:5000 in blocking solution, PharMingen, San Diego, Calif.) for 4 hours at room temperature. The slides were then washed three times with PBS and incubated with adequate secondary anti-rat antibody. Positive reactions were visualized by incubating the slides in stable 3,3′-diaminobenzidine for 5-10 min. The sections were rinsed with distilled water, counter-stained with Gill's haematoxylin for 1 min, and mounted with Universal Mount (Research Genetics). […] Mouse placenta was used as a positive control. For quantification, 3 independent visual fields were chosen and positive stained spots or vessels with lumen were counted.
The Percent Induction for a treatment is the difference in CD31 counts between the treatment (+bFGF) and the vehicle alone (no bFGF), divided by the difference in CD31 counts between the vehicle with bFGF and the vehicle alone (no bFGF), expressed as a percentage.

SMILES	Percent Induction (blood content relative to vehicle + bFGF minus vehicle alone) [1] [%]	Average blood content (from haemoglobin content) [1] [µL]	Average chamber weight [1] [g]	Percent Induction (CD31 counts relative to vehicle + bFGF minus vehicle alone) [2] [%]	Average number of blood vessels (CD31 counts) [2]	also measured
C[C@@H]1CC[C@@]2(OC1)O[C@H]1C[C@H]3[C@@H]4CC=C5C[C@@H](O[C@@H]6O[C@H](CO)[C@@H](O[C@@H]7O[C@H](CO)[C@@H](O)[C@H](O)[C@H]7O)[C@H](O)[C@H]6O[C@@H]6O[C@@H](C)[C@H](O)[C@@H](O)[C@H]6O)CC[C@]5(C)[C@H]4CC[C@]3(C)[C@H]1[C@@H]2C [Deltonin, diosgenin Rha2, [Glc4], Glc]	20	0.79	0.126	61	44	Branches Mean (aortic explants; 0.01 μM deltonin): 16; Sprouts Mean (aortic explants; 0.01 μM deltonin): 11; Branches Mean (aortic explants; 0.03 μM deltonin): 26; Sprouts Mean (aortic explants; 0.03 μM deltonin): 18; Branches Mean (aortic explants; 0.1 μM deltonin): 24; Sprouts Mean (aortic explants; 0.1 μM deltonin): 18; Branches Mean (aortic explants; 0.3 μM deltonin): 20; Sprouts Mean (aortic explants; 0.3 μM deltonin): 16; Branches Mean (aortic explants; 1 μM deltonin): 16; Sprouts Mean (aortic explants; 1 μM deltonin): 13; Branches Mean (aortic explants; 3 μM deltonin): 0; Sprouts Mean (aortic explants; 3 μM deltonin): 0; Branches Mean (aortic explants; 10 μM deltonin): 0; Sprouts Mean (aortic explants; 10 μM deltonin): 0; vessel branches from aortic explants in comparison to DMSO treated control explant cultures (aortic explants; at 10, 3 and 1 μM): significantly inhibited; vessel sprouts from aortic explants in comparison to DMSO treated control explant cultures (aortic explants; at 10 and 3 μM): significantly inhibited
C[C@@H]1CC[C@@]2(OC1)O[C@H]1C[C@H]3[C@@H]4CC=C5C[C@@H](O[C@@H]6O[C@H](CO)[C@@H](O[C@@H]7O[C@@H](C)[C@H](O)[C@@H](O)[C@H]7O)[C@H](O)[C@H]6O[C@@H]6O[C@@H](C)[C@H](O)[C@@H](O)[C@H]6O)CC[C@]5(C)[C@H]4CC[C@]3(C)[C@H]1[C@@H]2C [Dioscin, diosgenin Rha2, [Rha4], Glc]	45	1.24	0.131	49	35	
C[C@@H]1CC[C@@]2(OC1)O[C@H]1C[C@H]3[C@@H]4CC=C5C[C@@H](O[C@@H]6O[C@H](CO)[C@@H](O)[C@H](O)[C@H]6O[C@@H]6O[C@@H](C)[C@H](O)[C@@H](O)[C@H]6O)CC[C@]5(C)[C@H]4CC[C@]3(C)[C@H]1[C@@H]2C [Prosapogenin A, diosgenin Rha2, Glc]	84	1.92	0.389	29	21	
CNC(=O)c1cc(Oc2ccc(NC(=O)Nc3ccc(Cl)c(C(F)(F)F)c3)cc2)ccn1 [Sorafenib, reference compound]	27	0.92	0.322	3	2	
C[C@@H]1CC[C@@]2(OC1)O[C@H]1C[C@H]3[C@@H]4CC=C5C[C@@H](O[C@@H]6O[C@H](CO)[C@@H](O)[C@H](O)[C@H]6O)CC[C@]5(C)[C@H]4CC[C@]3(C)[C@H]1[C@@H]2C [Trillin, diosgenin-Glc]	58	1.46	0.421	57	41	
